{
  "source": "patent US5700639A",
  "about": "“Method for the detection of metabolically labelled DNA” (Boehringer Mannheim GmbH, priority 1993, dated 1997)",
  "key": {"[1]": {"tested_on": "HL60 cells", "assay": "Detection of metabolically labelled DNA fragments in apoptotic cells (3 hours incubation)", "format": "cell-based", "conditions": "200 ng/ml camptothecin, 37° C.", "procedure": "(§1) The cells to be examined (e.g. HL60 cells, ATCC CCL 240) are firstly metabolically labelled by incubation with 0.01 mmol/l bromodeoxyuridine for 18 hours at 37° C. After removing the excess bromodeoxyuridine that is not incorporated into DNA by washing with culture medium, the cells (200 μl in each case, see Table 1 for cell number) are incubated for 4 hours at 37° C. with 2 μg/ml camptothecin (Sigma, Munich) in a microtitre plate. Afterwards 20 μl 10-fold concentrated lysis buffer (PBS/50 mmol/l EDTA/2 % Tween 20) is added to each preparation for the lysis, the microtitre plate is centrifuged and 100 μl supernatant is taken from each well for the test (PBS=137 mmol/l NaCl; 2.7 mmol/l KCl; 8 mmol/l Na2 HPO4 and 1.5 mmol/l KH2 PO4).\nIn order to detect the metabolically labelled DNA, a further microtitre plate is coated with an antibody against DNA (5 μg/ml, Boehringer Mannheim GmbH, Ident. No. 1525760) in 100 mmol/l NaCO3 buffer pH 9.6. Subsequently the metabolically labelled DNA is bound to the wall antibody by addition of 100 μl supernatant (see above) per well and incubation for 90 minutes at room temperature. After washing with PBS, the remaining liquid is removed from the wells of the microtitre plate by for example knocking. […]"}, "[2]": {"tested_on": "HL60 cells", "assay": "Detection of metabolically labelled DNA fragments in the cytoplasm of apoptotic cells (4 hours incubation)", "format": "cell-based", "conditions": "for A (405 nm), metabolically labelled DNA fragments in the cytoplasm: 37° C.", "procedure": "as §1\nIn order to detect the metabolically labelled DNA, a further microtitre plate is coated with an antibody against DNA (5 μg/ml, Boehringer Mannheim GmbH, Ident. No. 1525760) in 100 mmol/l NaCO3 buffer pH 9.6. Subsequently the metabolically labelled DNA is bound to the wall antibody by addition of 100 μl supernatant (see above) per well and incubation for 90 minutes at room temperature. After washing with PBS, the remaining liquid is removed from the wells of the microtitre plate by for example knocking. Afterwards the bound double-stranded DNA is denatured or partially degraded by microwave treatment (5 min. 650 watts, AEG Micromat 275Z) or alternatively by addition of 100 μl (corresponding to 1 unit per well of the microtitre plate) exonuclease III (Boehringer Mannheim GmbH, Catalogue No. 779717). The preparation in which the DNA has been denatured by microwave treatment is subsequently cooled for 10 minutes at 8° C. in a refrigerator. The preparation treated with exonuclease III is subsequently washed three times with PBS.\nHL60 cells (ATCC CCL 240) were firstly metabolically labelled with bromodeoxyuridine as stated in example 1. After washing out excess bromodeoxyuridine, the cells are incubated in a microtitre plate at 37° C. for 3 or 4 hours with various concentrations of camptothecin (5000 to 0 ng/ml). Subsequently the microtitre plate is centrifuged, an aliquot of the cell culture supernatant (100 μl/well) is taken for the detection of metabolically labelled DNA in the cell culture supernatant according to example 2 and the cells remaining in the microtitre plate are lysed by addition of 100 μl/well 2-fold concentrated lysis buffer (PBS/10 mmol/l EDTA/0.4% Tween 20). The detection of the metabolically labelled DNA in the lysate obtained in this way is then carried out as described in example 1."}},
  "data": [
    {"smiles": "CC[C@@]1(O)C(=O)OCc2c1cc1n(c2=O)Cc2cc3ccccc3nc2-1", "note": "[camptothecin]", "values": [
      {"measurement": "A (405 nm), metabolically labelled DNA, cell culture supernatant", "setting": "[1]; cell culture supernatant (according to example 2)", "value": 0.020},
      {"measurement": "A (405 nm), metabolically labelled DNA, cytoplasm (lysate after detergent treatment)", "setting": "[1]; cytoplasm (lysate after detergent treatment)", "value": 0.770},
      {"measurement": "A (405 nm), metabolically labelled DNA fragments in the cytoplasm", "setting": "[2]; 1.6 ng/ml camptothecin", "value": 0.295},
      {"measurement": "A (405 nm), metabolically labelled DNA fragments in the cytoplasm", "setting": "[2]; 8 ng/ml camptothecin", "value": 0.342},
      {"measurement": "A (405 nm), metabolically labelled DNA fragments in the cytoplasm", "setting": "[2]; 40 ng/ml camptothecin", "value": 0.625},
      {"measurement": "A (405 nm), metabolically labelled DNA fragments in the cytoplasm", "setting": "[2]; 200 ng/ml camptothecin", "value": 1.006},
      {"measurement": "A (405 nm), metabolically labelled DNA fragments in the cytoplasm", "setting": "[2]; 1000 ng/ml camptothecin", "value": 1.457},
      {"measurement": "A (405 nm), metabolically labelled DNA fragments in the cytoplasm", "setting": "[2]; 5000 ng/ml camptothecin", "value": 1.677},
      {"measurement": "amount of cytoplasmic, metabolically labelled DNA fragments (dose dependence)", "setting": "[2]; camptothecin 5000 to 0 ng/ml", "value": "correlates with the amount of camptothecin"}
    ]}
  ]
}
